# Laboratory results from patent EP4806897A1, “AZA-BRIDGED RING DERIVATIVE” (Chia Tai Tianqing Pharmaceutical Group Co., Ltd., priority 2023, dated 2025).
# Experiments:
# MV-4-11 cells = assay: In vitro cell activity assay (CCK-8 proliferation), MV-4-11; format: cell-based; details: Homo sapiens, MV4-11; CCK-8, 72-120 h; read-out: IC50 (nM) for inhibitory activity against proliferation of MV-4-11 cells
# Description: (§1) MOLM-13 cells or MV-4-11 cells (source: Nanjing Cobioer Biosciences Co., Ltd.) in a good growth state were taken and seeded into a 96-well plate (100 µL/well) at 2000-10000 cells/well. After the cells were cultured overnight in a cell incubator at 37 °C, the compounds were subjected to gradient dilution and added using a pipettor, with 2 parallel replicate wells in each group. Meanwhile, a control group was set. After the cells were cultured in a cell incubator at 37 °C for another 72-120 h, the detection reagent CCK-8 (manufacturer: Dojindo Laboratories, Japan; 10 µL/well) was added. After the cells were cultured at 37 °C for another 3-5 h, absorbance values were measured at […] using a PerkinElmer Envision multi-functional microplate reader. Four-parameter analysis was performed in GraphPad Prism software to fit dose-response curves and calculate IC50 values. A represents that IC50 < 50 nM. Table 1. Inhibitory activity against cell proliferation
# Menin-MLL interaction = biological target: T1, Menin-MLL interaction (Homo sapiens, UniProt O00255); assay: Fluorescence polarization assay of Menin-MLL interaction; details: GST-MENIN (1-615 aa) 8 nM, FITC-MLL15-43 8 nM; read-out: IC50 (nM) for inhibitory activity against Menin-MLL protein binding
# T1 construct: GST-MENIN (1-615 aa) and FITC-MLL15-43 were diluted with an FP buffer
# T1 sequence (O00255 1-615 isoform O00255-1): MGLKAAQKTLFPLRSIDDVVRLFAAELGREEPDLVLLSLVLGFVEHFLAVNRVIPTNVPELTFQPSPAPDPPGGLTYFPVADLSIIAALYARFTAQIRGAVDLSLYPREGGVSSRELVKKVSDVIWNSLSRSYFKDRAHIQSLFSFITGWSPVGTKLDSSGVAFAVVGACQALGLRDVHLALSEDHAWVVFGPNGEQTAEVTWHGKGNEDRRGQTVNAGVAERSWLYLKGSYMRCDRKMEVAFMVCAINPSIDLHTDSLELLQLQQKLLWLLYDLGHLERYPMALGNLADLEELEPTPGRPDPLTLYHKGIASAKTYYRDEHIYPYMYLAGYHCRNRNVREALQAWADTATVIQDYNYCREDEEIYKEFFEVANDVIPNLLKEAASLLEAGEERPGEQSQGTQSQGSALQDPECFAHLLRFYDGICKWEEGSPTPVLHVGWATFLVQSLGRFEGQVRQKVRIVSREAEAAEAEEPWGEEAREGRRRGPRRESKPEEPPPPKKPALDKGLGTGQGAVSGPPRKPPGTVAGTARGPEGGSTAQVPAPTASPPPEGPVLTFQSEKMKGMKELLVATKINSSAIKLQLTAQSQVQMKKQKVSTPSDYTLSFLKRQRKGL
# Description: The binding activity of the compounds for the menin protein was determined by a fluorescence polarization assay. GST-MENIN (1-615 aa) and FITC-MLL15-43 were diluted with an FP buffer (50 mM Tris-HCl pH 7.5, 50 mM NaCl, 1 mM DTT, 0.01% BSA), and the mixed solution of GST-MENIN (1-615 aa) at a final concentration of 8 nM and FITC-MLL15-43 at a final concentration of 8 nM was added to a black 384-well microtiter plate at 10 µL/well. The plate was centrifuged at 2500 rpm for 1 min and incubated at room temperature in the dark for 1 h. 5 µL of diluted compound (7 concentration points, 4-fold serial dilution, with blank control and negative control wells set) was added, and the plate was centrifuged at 2500 rpm for 1 min and incubated at room temperature in the dark for 3 h. After incubation, FP (480/535) values were measured using a PerkinElmer Envision multi-functional microplate reader, and the ability of the compounds to inhibit the Menin-MLL interaction was determined by calculating the inhibition rate (%) for each compound concentration according to formula 1; formula 1: inhibition rate (%) = 1 - (Maximum mP Control - mP of administration group)/(Maximum mP Control - minimum mP Control) × 100%. Four-parameter analysis was performed in GraphPad Prism software to fit dose-response curves and calculate IC50 values. A represents that IC50 < 50 nM. Table 2. Inhibitory activity against Menin-MLL protein binding
# [1] = In vitro liver microsomal stability, mouse; details: mouse liver microsomes 0.5 mg/mL, compound 1 µM, 37 °C
# Description: (§2) Liver microsome incubation samples were prepared by mixing a PBS buffer (pH 7.4), a liver microsome solution from various species (human, mouse, monkey, dog, and rat) (0.5 mg/mL), a test compound (final concentration: 1 µM), and an NADPH + MgCl2 solution, followed by incubation at 37 °C and 300 rpm. Samples were collected from the reaction solution at the time points of 15 min and 60 min. Zero-hour samples were prepared by mixing a PBS buffer (pH 7.4), a liver microsome solution (0.5 mg/mL), and a test compound. An acetonitrile solution containing an internal standard was added to the samples, and supernatants were prepared by protein precipitation, diluted, and then assayed by LC-MS/MS.
# [2] = In vitro liver microsomal stability, human; details: human liver microsomes 0.5 mg/mL, compound 1 µM, 37 °C
# Description: as §2
# MOLM-13 cells = assay: In vitro cell activity assay (CCK-8 proliferation), MOLM-13; format: cell-based; details: Homo sapiens, CCK-8, 72-120 h, read-out: IC50 (nM) for inhibitory activity against proliferation of MOLM-13 cells
# Description: as §1
SMILES,IC50 (MV-4-11 cells),IC50 (Menin-MLL interaction),Residuals at 60 min (%) [1],Residuals at 60 min (%) [2],IC50 (MOLM-13 cells)
C=C1CC2CCC1C(C(=O)N1CCC3(CC1)CN(c1ncnnc1Oc1c(F)cc(F)cc1-c1cccnc1C1CC1)C3)N2 (stereo not shown) [Compound 58],< 50 nM,,,,
C=C1C[C@@H]2CC[C@H]1[C@@H](C(=O)N1CCC3(CC1)CN(c1ncnnc1Oc1ccc(F)cc1-c1ccc(O)nc1C1CC1)C3)N2 [Compound 64],< 50 nM,< 50 nM,>60%,>40%,
C=C1CC2CCC1C(C(=O)N1CCC3(CC1)CN(c1ncncc1Oc1ccc(F)cc1C(=O)N(C)C(C)C)C3)N2 (stereo not shown) [Compound 6],< 50 nM,,,,
C=C1CC2CCC1C(C(=O)N1CCC3(CC1)CN(c1ncnnc1Oc1ccc(F)cc1-c1nccn1C(C)C)C3)N2 (stereo not shown) [Compound 65],< 50 nM,,,,
C=C1C[C@@H]2CC[C@H]1[C@@H](C(=O)N1CCC3(CC1)CN(c1ncnnc1Oc1ccc(F)cc1-c1cc(C(F)(F)F)cnc1C1CC1)C3)N2 [Compound 54],< 50 nM,< 50 nM,,,< 50 nM
C=C1C[C@@H]2CC[C@H]1[C@@H](C(=O)N1CC3(C1)CN(c1ncnnc1Oc1ccc(F)cc1-c1cncnc1C1CC1)C3)N2 [Compound 73],< 50 nM,< 50 nM,>60%,,< 50 nM
C=C1C[C@@H]2CC[C@H]1[C@@H](C(=O)N1CC3(C1)CN(c1ncnnc1Oc1ccc(F)cc1-c1ccnn1C(C)C)C3)N2 [Compound 71],< 50 nM,< 50 nM,,,< 50 nM
C=C1C[C@@H]2CC[C@H]1[C@@H](C(=O)N1CCC3(CC1)CN(c1ncnnc1Oc1ccc(F)cc1C(=O)N(CC)C(C)C)C3)N2 [Compound 27],< 50 nM,< 50 nM,>60%,>40%,< 50 nM
C=C1C[C@@H]2CC[C@H]1[C@@H](C(=O)N1CCC3(CC1)CN(c1ncncc1Oc1ccc(F)cc1-c1cccnc1C1CC1)C3)N2 [Compound 3],< 50 nM,< 50 nM,,,< 50 nM
C=C1C[C@@H]2CC[C@H]1[C@@H](C(=O)N1CCC3(CC1)CN(c1ncnnc1Oc1ccc(F)cc1-c1ccnn1C(C)C)C3)N2 [Compound 32],< 50 nM,< 50 nM,,,
C=C1C[C@@H]2CC[C@H]1[C@@H](C(=O)N1CCC3(CC1)CN(c1ccnnc1Oc1ccc(F)cc1C(=O)N(CC)C(C)C)C3)N2 [Compound 36],< 50 nM,< 50 nM,,,< 50 nM
C=C1C[C@@H]2CC[C@H]1[C@@H](C(=O)N1CCC3(CC1)CN(c1ccnnc1Oc1ccc(F)cc1-c1cccnc1C1CC1)C3)N2 [Compound 35],< 50 nM,< 50 nM,,,< 50 nM
C=C1C[C@@H]2CC[C@H]1[C@@H](C(=O)N1CCC3(CC1)CN(c1ncnnc1Oc1ccc(F)cc1C(=O)N(C(C)C)C(C)C)C3)N2 [Compound 50],< 50 nM,< 50 nM,,,< 50 nM
C=C1C[C@@H]2CC[C@H]1[C@@H](C(=O)N1CC3(C1)CN(c1ncnnc1Oc1ccc(F)cc1-c1cccnc1C1CC1)C3)N2 [Compound 67],< 50 nM,< 50 nM,,,< 50 nM
C=C1C[C@@H]2CC[C@H]1[C@@H](C(=O)N1CCC3(CC1)CN(c1ncnnc1Oc1ccc(F)cc1-c1cccnc1C1CC1)C3)N2 [Compound 31],< 50 nM,< 50 nM,,,< 50 nM
C=C1C[C@@H]2CC[C@H]1[C@@H](C(=O)N1CCC3(CC1)CN(c1ncnnc1Oc1ccc(F)cc1-c1cncnc1C1CC1)C3)N2 [Compound 33],< 50 nM,< 50 nM,>60%,,
C=C1C[C@@H]2CC[C@H]1[C@@H](C(=O)N1CCC3(CC1)CN(c1ncnnc1Oc1ccc(F)cc1C(=O)N1C(C)CCCC1C)C3)N2 (stereo partly shown) [Compound 46],< 50 nM,< 50 nM,,,
C=C1CC2CCC1C(C(=O)N1CCC3(CC1)CN(c1ncnnc1Oc1ccc(F)cc1-c1ccnn1C1CC1)C3)N2 (stereo not shown) [Compound 70],< 50 nM,,,,
C=C1CC2CCC1C(C(=O)N1CCC3(CC1)CN(c1ncnnc1Oc1ccc(F)cc1-c1cccnc1OC)C3)N2 (stereo not shown) [Compound 34],< 50 nM,,,,
C=C1CC2CCC1C(C(=O)N1CCC3(CC1)CN(c1ncnnc1Oc1ccc(F)cc1-c1nccnc1C1CC1)C3)N2 (stereo not shown) [Compound 66],< 50 nM,,,,
C=C1C[C@@H]2CC[C@H]1[C@@H](C(=O)N1CCC3(CC1)CN(c1ncncc1Oc1ccc(F)cc1C(=O)N(CC)C(C)C)C3)N2 [Compound 2],< 50 nM,< 50 nM,,,< 50 nM
C=C1C[C@@H]2CC[C@H]1[C@@H](C(=O)N1CCC3(CC1)CN(c1ncncc1Oc1ccc(F)cc1-c1ccnn1C(C)C)C3)N2 [Compound 4],< 50 nM,< 50 nM,,,< 50 nM
C=C1C[C@@H]2CC[C@H]1[C@@H](C(=O)N1CC3(C1)CN(c1ncnnc1Oc1ccc(F)cc1C(=O)N(CC)C(C)C)C3)N2 [Compound 56],< 50 nM,< 50 nM,,>40%,< 50 nM
C=C1CC2CCC1C(C(=O)N1CCCC3(CC1)CN(c1ncncc1Oc1ccc(F)cc1-c1cncnc1C1CC1)C3)N2 (stereo not shown) [Compound 77],< 50 nM,,,,< 50 nM
C=C1CC2CCC1C(C(=O)N1CCCC3(CC1)CN(c1ncncc1Oc1ccc(F)cc1-c1cccnc1C1CC1)C3)N2 (stereo not shown) [Compound 76],< 50 nM,,,,< 50 nM
C=C1C[C@@H]2CC[C@H]1[C@@H](C(=O)N1CCC3(CC1)CN(c1ncnnc1Oc1ccc(F)cc1-c1cnccc1OC)C3)N2 [Compound 48],,< 50 nM,>60%,>40%,
C=C1C[C@@H]2CC[C@H]1[C@@H](C(=O)N1CCC3(CC1)CN(c1ncnnc1Oc1ccc(F)cc1-c1ccnnc1C1CC1)C3)N2 [Compound 74],< 50 nM,< 50 nM,,,< 50 nM
